In this data set the test system is community-dwelling elderly patients diagnosed with Alzheimer's disease (behavioral agitation). The data set can be described thus: 8-week, open-label, single-arm study of oxcarbazepine for behavioral agitation in Alzheimer's disease patients. In kind it is in vivo, human. Particulars: for change from baseline in Cohen-Mansfield Agitation Inventory (CMAI) score (mean±SD): baseline 60.6±14.7, mean oxcarbazepine daily dose 340 mg/day (range 150-552 mg/day), p≦0.0002. The procedure: In an 8-week, open-label, single-arm study are recruited twenty-six patients community-dwelling elderly patients (>63 years of age) diagnosed with Alzheimer's disease. After a 1-week screening period to assess each patient's agitation level, oxcarbazepine 150 mg/day treatment is initiated and titrated by 150 mg/day every 3-7 days to a maximum of 1200 mg/day with a mean oxcarbazepine daily dose of 340 mg/day (range 150-552 mg/day). The primary outcome measure is improvement in behavioral agitation, based on the 38-item Cohen-Mansfield Agitation Inventory (CMAI) that evaluates the prevalence of pathologic and disruptive agitated behavior. Secondary evaluations include effects on neuropsychiatric symptoms, cognitive impairment, global functioning, and tolerability.
Significant reductions in CMAI score from baseline (mean±SD: 60.6±14.7) occur at each time point (mean±SD change from baseline on Day 14: −16.9±19.7, Day 28: −22.6±19.0, Day 56: −20.8±19.6; all p≦0.0002). […] Cognitive performance and global functioning remain stable throughout the study.

Setting [1] is: patients with Alzheimer's disease, open-label prospective study.

Here are results for 1 compound from US20090192142A1, “USE OF CARBAMAZEPINE DERIVATIVES FOR THE TREATMENT OF AGITATION IN DEMENTIA PATIENTS” (priority 2004, published 2009).

Consider `NC(=O)N1c2ccccc2CC(=O)c2ccccc21` [oxcarbazepine, 10-oxo-10,II-dihydro-5H-dibenz(b,f)azepine-5-carboxamide], for which the “change from baseline in Cohen-Mansfield Agitation Inventory (CMAI) score (mean±SD)” value reads like this: (Day 14) −16.9±19.7; (Day 28) −22.6±19.0; (Day 56) −20.8±19.6. Also, the “mean Neuropsychiatric Inventory score” value (each time point, all p≦0.02 versus screening) is recorded as “Significant improvement”. Under setting [1], the “efficacy in the treatment of agitation” value was “effective”. Moreover, the tolerability result under setting [1] is listed as “generally well tolerated”. The cognitive performance result (throughout the 8-week study) is listed as “remain stable”. The global functioning result (throughout the 8-week study) was “remain stable”.
